Source: patent US9833510B2, “Modified release solid or semi-solid dosage forms” (Johnson & Johnson Consumer Inc., priority 2007, dated 2017)
Counter-ions that a name gives are not always drawn.

Legend:
[1] = typical duration of action (period of therapeutic effect) of an immediate release dose, from product labeling; type: in vivo; conditions: for ATDAIRD (average therapeutic duration of action of an effective immediate release dose): average of typical duration range; for ATDAIRD: as restated, unit not given
Text: As used herein, “ATDAIRD” shall mean the average therapeutic duration of action of an effective immediate release dose” of a particular active ingredient. […] The therapeutic duration of action of a particular active ingredient can readily be determined from the dosing instructions in the labeling for immediate release products containing that particular active ingredient.

[2] = background statement; typically administered every 2 to 4 hours; cited from earlier work

Structure (SMILES)	ATDAIRD (average therapeutic duration of action of an effective immediate release dose) [1]	therapeutically effective plasma concentration (duration) [2]	ATDAIRD [1]
CC(C)Cc1ccc(C(C)C(=O)O)cc1 (stereo not shown) [ibuprofen, 2-(4-isobutylphenyl)-propionic acid]	5 h	–	–
CC(C(=O)O)c1cccc(C(=O)c2ccccc2)c1 (stereo not shown) [ketoprofen]	5 h	–	–
COc1ccc2cc([C@H](C)C(=O)O)ccc2c1 [naproxen]	10 h	–	–
CNC[C@H](O)c1cccc(O)c1 [phenylephrine hydrochloride]	–	about 2.5 hours	–
CNC[C@H](O)c1cccc(O)c1 [phenylephrine, benzynemethanol, 3-hydroxy-α-[(methylamino)methyl]]	3 h	–	about 3
CN[C@@H](C)[C@@H](O)c1ccccc1 [psuedoephedrine]	–	–	about 3
